Measured values as given in patent US20200010910A1, “Cytotoxic Chemotherapy-Based Predictive Assays for Acute Myeloid Leukemia” (The Regents of The University of California, priority 2017, published 2020).

Columns and labels:
Type in all cases: cell-based
A2780 = experiment: CellTiter 96 Aqueous cell proliferation assay; details: Homo sapiens, 72 hr continuous treatment
Source text: (§1) Correlation of IC50 to the AML induction drugs Dox and Ara-C were first performed with the adherent bladder cancer cell lines 5637 and 5637R for cytarabine and with the adherent ovarian cancer cell lines A2780 and A2780ADR for doxorubicin. Cell lines 5637 and 5637R (Ara-C resistant) have been described previously (20). A2780 and A2780ADR (doxorubicin resistant) were purchased from Sigma-Aldrich and grown as recommended. IC50 values were obtained by plating 4000 cells per well in 96-well plates the night before treatment, and then allowing the cells to adhere over night. Leukemia cell lines capable of continuous proliferation in suspension and having differential sensitivities to Dox and Ara-C were also obtained for correlation analysis. MV-4-11 (acute monocytic leukemia) and THP-1 (acute monocytic leukemia) human cell lines were purchased from American Type Culture Collection (ATCC, Manassas, Va.). MOLM-13 (acute myeloid leukemia) human cells were purchased from AddexBio (San Diego, Calif.). For leukemia cell lines (suspension cultures), approximately 8,000-11,000 cells were seeded per well in 96-well plates the day of treatment. MV-4-11 cells were grown in IMDM (Iscove's Modified Dulbecco's Media) with 10% FBS, 100 U/ml penicillin, and 100 μg/ml streptomycin. THP-1, A2780, and A2780ADR cells were grown in RPMI-1640 media with 10% FBS, 100 U/ml penicillin, and 100 μg/ml streptomycin. 5637, 5637R, and MOLM-13 cells were grown in RPMI-1640 media with 20% FBS, 100 U/ml penicillin, and 100 μg/ml streptomycin. All cells were cultured at 37° C. in a humidified incubator. The cells were then incubated with increasing doses of cytarabine or doxorubicin continuously for 72 hours. IC50 values were determined using the CellTiter 96 Aqueous Non-Radioactive Cell Proliferation Assay (Promega). […] As shown, 5637 and 5673R have differential sensitivity to cytarabine, while A2780 and A2780ADR have differential sensitivity to doxorubicin. The leukemic suspension cell lines also have differential sensitivity to these two drugs.

A2780ADR = experiment: CellTiter 96 Aqueous cell proliferation assay; details: A2780 ADR, 72 hr continuous treatment
Source text: as §1

MV-4-11 = experiment: CellTiter 96 Aqueous cell proliferation assay; details: Homo sapiens, MV4-11, 72 hr continuous treatment
Source text: as §1

THP-1 = experiment: CellTiter 96 Aqueous cell proliferation assay; details: Homo sapiens, 72 hr continuous treatment
Source text: as §1

MOLM-13 = experiment: CellTiter 96 Aqueous cell proliferation assay; details: Homo sapiens, 72 hr continuous treatment
Source text: as §1

[1] = tested on: A2780 and A2780ADR ovarian cancer cell lines; experiment: doxorubicin-DNA adducts by AMS; details: 10 nM or 100 nM DOX 4 h, then 20 hr drug-free
Protocol: In order to assess the formation and loss of intracellular doxorubicin-DNA adducts, ovarian cancer cells were treated with Dox in culture. For doxorubicin-treated cells, one million ovarian cancer cells were seeded in 60-mm dishes the day before treatment and allowed to attach overnight. Similar to the ARA-C bolus protocol, the ovarian cancer cell lines were treated with a low (10 nM) or a high (100 nM) dose of unlabeled DOX supplemented with 0.8 nM of ^14C-labeled DOX (100 dpm/mL, 0.39-3.7 mCi/mmol specific activity (American Radiolabeled Chemicals, Inc.) for 4 h followed by an additional 20 hr of culturing in drug-free media (FIG. 25C). At 24 hrs, the cells were pelleted and washed. DNA was then isolated from these cells using the Qiamp DNA Blood Kit followed by two phenol and one chloroform extractions to remove intercalated DOX according to a published protocol (19). This protocol left intact covalent DOX-DNA adducts that are known to be formed as a consequence of DOX metabolism. Removal of intercalated DOX is important, since it is noncovalently bound and would otherwise partially diffuse out from the DNA sample causing variable results. Ten micrograms of DNA from each sample was converted to graphite and the ratios of ^14C to total C were measured by AMS. AMS was performed on triplicate DNA samples and the results were converted to drug-DNA adducts per ten million nucleotides.

SMILES: COc1cccc2c1C(=O)c1c(O)c3c(c(O)c1C2=O)C[C@@](O)(C(=O)CO)C[C@@H]3O[C@H]1C[C@H](N)[C@H](O)[C@H](C)O1 [doxorubicin]
- IC50 (A2780): 21 nM
- IC50 (A2780ADR): 12000 nM
- IC50 (MV-4-11): 3 nM
- IC50 (THP-1): 24 nM
- IC50 (MOLM-13): 4 nM
- doxorubicin-DNA adducts in resistant A2780ADR compared to sensitive A2780 [1]: fewer doxorubicine-DNA adducts
